Assay results: US6100239A, “13-membered ring macrolide compound, medicine containing the same, and process for producing the same” (Chugai Seiyaku Kabushiki Kaisha, priority 1996, dated 2000)

Molecular target: T1, Motilin receptor (Oryctolagus cuniculus, UniProt G1T803)
T1 construct: homogenized in a 50 mM Tris solution (pH 7.4) to prepare a protein solution; from tissue; host or cells: rabbit duodenum (mucous membrane detached from the tunica muscularis, then homogenized)
Assay: Motilin receptor binding test (125I-labeled motilin)
Settings: rabbit duodenum tunica muscularis homogenate; 25 pM 125I-labeled motilin; 25° C., 120 minutes; test drug in DMSO (final 1%); read-out: IC50, the concentration of the test drug which reduces the specific binding capacity to 50%
Protocol: Motilin receptor binding test was carried out by the method shown below (see V. Bormans, et al., Regul, Peptides, 15, 143 (1986)). From a slaughtered rabbit was removed the duodenum, of which the mucous membrane was detached from the tunica muscularis and then homogenized in a 50 mM Tris solution (pH 7.4) to prepare a protein solution. After incubating 25 pM ^125 I-labeled motilin (available from Otsuka Assay Laboratory) and the protein solution at 25° C. for 120 minutes, radioactivity in the protein solution was measured with a γ-ray counter. The difference between the radioactivity observed in the case of non-addition of motilin and that observed in the case of addition of an excess (1×10^-7 M) of motilin was defined as the specific binding capacity. The efficacy of the sample was expressed as IC50, the concentration of the test drug which reduces the specific binding capacity to 50%. The test drug was dissolved in a DMSO solution and added to the protein solution (the final DMSO concentration: 1%).

T1 sequence (G1T803 1-400): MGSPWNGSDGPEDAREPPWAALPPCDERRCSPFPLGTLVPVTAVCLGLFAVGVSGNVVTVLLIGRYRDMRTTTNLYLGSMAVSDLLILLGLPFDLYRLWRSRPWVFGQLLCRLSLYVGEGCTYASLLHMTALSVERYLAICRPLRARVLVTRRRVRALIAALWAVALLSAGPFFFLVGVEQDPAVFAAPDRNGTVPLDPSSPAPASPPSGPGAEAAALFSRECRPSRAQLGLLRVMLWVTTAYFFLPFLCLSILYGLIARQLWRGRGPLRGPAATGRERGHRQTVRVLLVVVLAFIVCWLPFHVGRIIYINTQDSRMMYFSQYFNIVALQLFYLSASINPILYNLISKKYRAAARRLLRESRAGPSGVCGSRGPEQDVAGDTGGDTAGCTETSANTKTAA

COC1(C)CC(OC2C(C)C(=O)OC(C)C(=O)C(C)C3=C(C)CC(C)(O3)C(OC3OC(C)CC(N(C)C)C3O)C2C)OC(C)C1O (stereo not shown) [Compound 4] showed an IC50 of 5.7 nM.
